Patent publication US20240390487A1, “TLR AGONISTS FOR REDUCING ACTIVATION-INDUCED PD-1 EXPRESSION ON T CELLS AND METHODS OF USE” (WISCONSIN ALUMNI RESEARCH FOUNDATION, priority 2016, published 2024)

System: purified OT-1 CD8+ T cells
Test: In vitro co-culture / conditioned medium experiments with APC and OT-1 CD8+ T cells
Format: cell-based, mice
Details: purified DC or B cells pre-treated with TLR agonist, SIINFEKL, 24 hours
Experimental: FIGS. 14A-14D. Changes in PD-1 expression following TLR stimulation are mediated by IL-12 secreted from APCs. Panel A: Purified OT-1 T cells (T), B cells (B), or dendritic cells (DC) were activated with SIINFEKL peptide (SEQ ID NO:1, OVA) or with a non-specific peptide (NS) in the presence of either TLR1/2 (TLR1/2) agonist, TLR7 agonist (TLR7), or media alone. After 24 hours, cells were washed and co-cultured with naïve purified OT-1 CD8+ T cells for an additional 24 hours and then assessed for expression of the indicated surface receptors (4-1BB, CD3, PD-1, LAG3, CTLA-4, and TIM3) by flow cytometry. Shown is the MFI for each marker, with samples assessed in triplicate. Panel B: Purified DC were stimulated in the presence of TLR1/2 agonist, TLR7 agonist, or media alone. […] After 24 hours, cells were assessed for expression of the indicated surface receptors (4-1BB, PD-1, LAG3, and CTLA-4) by flow cytometry. Shown is mean and standard error of the MFI for each marker, with samples assessed in triplicate. […] Culture supernatant was then evaluated for the presence of IL12 p70 by ELISA. […] After 24 hours, cells were assessed for expression of the indicated surface receptors (4-1BB, PD-1, LAG3, and CTLA-4) by flow cytometry. Shown is mean and standard error of the MFI for each marker, with samples assessed in triplicate and are representative of two similar experiments. […]

## CCNCc1nc2c(N)nc3ccccc3c2n1CC(C)(C)O [Gardiquimod]
  PD-1 expression on OT-1 T cells activated with TLR-agonist-treated APC: reduced

## Pam3CSK4
  PD-1 expression on OT-1 T cells activated with TLR-agonist-treated APC: reduced
